Source: patent US11207310B2 (PRILENIA NEUROTHERAPEUTICS LTD., priority 2016, dated 2021)
Read-outs that look alike come from different tables or passages of the source.

Experiments:
[1] = test system: patients with HD; conditions: early HD, week 52;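 as to Change from baseline in mPPT Total Score: modified Physical Performance Test: standardized 9-item rating of physical functional tasks, scored on speed and accuracy, maximum 36, higher score means better performance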;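 as to Δ to placebo: mPPT total score, change from baseline: modified Physical Performance Test: standardized 9-item rating of physical functional tasks, scored on speed and accuracy, maximum 36, higher score means better performance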
[2] = test system: patients with HD;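 as to Δ to placebo: mPPT total score, change from baseline: modified Physical Performance Test: standardized 9-item rating of physical functional tasks, scored on speed and accuracy, maximum 36, higher score means better performance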
Description: The PBA-s is a brief semi-structured interview covering the most common behavioral and psychiatric manifestations of HD. […] Severity and frequency scores are multiplied to produce an overall ‘PBA score’ for each symptom.
The PBA-s is a brief semi-structured interview covering the most common behavioral and psychiatric manifestations of HD.
The total PBA score is calculated by the sum of all PBA-s scores across symptoms/domains.

[3] = test system: patients with HD; remark: listed apart in the source;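 as to Δ to placebo: mPPT total score, change from baseline: modified Physical Performance Test: standardized 9-item rating of physical functional tasks, scored on speed and accuracy, maximum 36, higher score means better performance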
Excerpt: The mPPT quantifies the patient's performance in physical tasks (Brown 2000). It is a standardized 9-item test (standing static balance, chair rise, lift a book and put it on a shelf, put on and remove a jacket, pick up a penny from floor, turn 360 degrees, 50 feet walk, climb one flight of stairs, climb stairs test (flights up and down)), that measures the patient's performance on functional tasks. Both the speed and accuracy at which the patients complete the items are taken into account during scoring. The maximum score of the test is 36, with higher scores indicating better performance.
The secondary efficacy variable and endpoint, the Modified Physical Performance Test (mPPT), quantifies the patient's performance in physical tasks (Brown 2000). It is a standardized 9-item test that measures the patient's performance on functional tasks. Assistive devices are permitted for the tasks that require a standing position (items 6 to 9). Both the speed and accuracy at which the patients complete the items were taken into account during scoring. The maximum score of the test is 36, with higher scores indicating better performance.

CCCN1CCC(c2cccc(S(C)(=O)=O)c2)CC1 [pridopidine, 4-[3-(methylsulfonyl)phenyl]-1-propyl-piperidine]
Wk 52 Δ to placebo: UHDRS TMS Gait ([1]; 45 mg bid): −0.21 | Wk 52 Δ to placebo: UHDRS TMS Gait ([1]; 67.5 mg bid): −0.17 | Wk 52 Δ to placebo: UHDRS TMS Gait ([1]; 90 mg bid): −0.17 | Wk 52 Δ to placebo: UHDRS TMS Gait ([1]; 112.5 mg bid): −0.06 | PBA Lack of Initiative (Apathy), Severity×Frequency, change from baseline, Δ to placebo ([2]; 45 mg bid, Week 26, ALL, p value 0.1235): −0.87 | PBA Lack of Initiative (Apathy), Severity×Frequency, change from baseline, Δ to placebo ([2]; 45 mg bid, Week 26, Stage 1 BL TFC 11-13, p value 0.0703): −1.85 | Problems Behavioral Assessment apathy sub-score compared with placebo ([2]; 45 mg bid, early HD patients, week 52): improved | PBA Lack of Initiative (Apathy), Severity×Frequency, change from baseline, Δ to placebo ([2]; 67.5 mg bid (printed head, heads shifted), Week 52, BL TFC>7, p value 0.0608): −1.39 | PBA Lack of Initiative (Apathy), Severity×Frequency, change from baseline, Δ to placebo ([2]; 67.5 mg bid (printed head, heads shifted), Week 52, Full analysis set, p value 0.0704): −1.27 | PBA Lack of Initiative (Apathy), Severity×Frequency, change from baseline, Δ to placebo ([2]; 67.5 mg bid, Week 26, ALL, p value 0.3437): −0.53 | PBA Lack of Initiative (Apathy), Severity×Frequency, change from baseline, Δ to placebo ([2]; 67.5 mg bid, Week 26, Stage 1 BL TFC 11-13, p value 0.1267): −1.51 | PBA Lack of Initiative (Apathy), Severity×Frequency, change from baseline, Δ to placebo ([2]; 90 mg bid (printed head, heads shifted), Week 52, BL TFC>7, p value 0.703): −0.29 | PBA Lack of Initiative (Apathy), Severity×Frequency, change from baseline, Δ to placebo ([2]; 90 mg bid (printed head, heads shifted), Week 52, Full analysis set, p value 0.7052): 0.26 | PBA Lack of Initiative (Apathy), Severity×Frequency, change from baseline, Δ to placebo ([2]; 90 mg bid, Week 26, ALL, p value 0.7198): −0.2 | PBA Lack of Initiative (Apathy), Severity×Frequency, change from baseline, Δ to placebo ([2]; 90 mg bid, Week 26, Stage 1 BL TFC 11-13, p value 0.1822): −1.46 | PBA Lack of Initiative (Apathy), Severity×Frequency, change from baseline, Δ to placebo ([2]; 112.5 mg bid (printed head, heads shifted), Week 52, BL TFC>7, p value 0.9734): −0.02 | PBA Lack of Initiative (Apathy), Severity×Frequency, change from baseline, Δ to placebo ([2]; 112.5 mg bid (printed head, heads shifted), Week 52, Full analysis set, p value 0.8599): −0.12 | PBA Lack of Initiative (Apathy), Severity×Frequency, change from baseline, Δ to placebo ([2]; 112.5 mg bid, Week 26, ALL, p value 0.6445): −0.26 | PBA Lack of Initiative (Apathy), Severity×Frequency, change from baseline, Δ to placebo ([2]; 112.5 mg bid, Week 26, Stage 1 BL TFC 11-13, p value 0.0089): −2.62 | PBA Lack of Initiative (Apathy), Severity×Frequency, change from baseline, Δ to placebo ([2]; Placebo (printed head, heads shifted), Week 52, BL TFC>7, p value 0.7346): 0.26 | PBA Lack of Initiative (Apathy), Severity×Frequency, change from baseline, Δ to placebo ([2]; Placebo (printed head, heads shifted), Week 52, Full analysis set, p value 0.9523): −0.04 | Δ to placebo: mPPT total score, change from baseline ([3]; 45 mg bid, BL stage 3-5 (TFC 0-6), 26 weeks): 0.9 | Δ to placebo: mPPT total score, change from baseline ([3]; 45 mg bid, BL stage 3-5, 52 weeks): 1.57 | Change from baseline in mPPT Total Score ([3]; 45 mg bid, Full Analysis Set, after 52 weeks (FIG. 46a)): shows improvement on mPPT score | Δ to placebo: mPPT total score, change from baseline ([3]; 45 mg bid, Full Analysis Set, week 26): 0.04 | Δ to placebo: mPPT total score, change from baseline ([3]; 45 mg bid, Full Analysis Set, week 52): 0.46 | Δ to placebo: mPPT total score, change from baseline ([3]; 45 mg bid, HD1 and HD2 patients, week 26): −0.24 | Δ to placebo: mPPT total score, change from baseline ([3]; 45 mg bid, HD1 and HD2 patients, week 52): 0.15 | Δ to placebo: mPPT total score, change from baseline ([3]; 45 mg bid, HD1 patients, 26 weeks): −1.31 | Δ to placebo: mPPT total score, change from baseline ([3]; 45 mg bid, HD1 patients, 52 weeks): 0.76 | Δ to placebo: mPPT total score, change from baseline ([3]; 45 mg bid, HD2 patients, 26 weeks): −0.07 | Δ to placebo: mPPT total score, change from baseline ([3]; 45 mg bid, HD2 patients, 52 weeks): −0.39 | Δ to placebo: mPPT total score, change from baseline ([3]; 45 mg bid, baseline TFC<7, week 26): 0.9 | Δ to placebo: mPPT total score, change from baseline ([3]; 45 mg bid, baseline TFC<7, week 52): 1.57 | Δ to placebo: mPPT total score, change from baseline ([3]; 67.5 mg bid, BL stage 3-5 (TFC 0-6), 26 weeks): −0.85 | Δ to placebo: mPPT total score, change from baseline ([3]; 67.5 mg bid, BL stage 3-5, 52 weeks): −1.37 | Δ to placebo: mPPT total score, change from baseline ([3]; 67.5 mg bid, Full Analysis Set, week 26): −0.07 | Δ to placebo: mPPT total score, change from baseline ([3]; 67.5 mg bid, Full Analysis Set, week 52): 0.17 | Δ to placebo: mPPT total score, change from baseline ([3]; 67.5 mg bid, HD1 and HD2 patients, week 26): 0.59 | Δ to placebo: mPPT total score, change from baseline ([3]; 67.5 mg bid, HD1 and HD2 patients, week 52): 1.04 | Δ to placebo: mPPT total score, change from baseline ([3]; 67.5 mg bid, HD1 patients, 26 weeks): −0.2 | Δ to placebo: mPPT total score, change from baseline ([3]; 67.5 mg bid, HD1 patients, 52 weeks): 0.45 | Δ to placebo: mPPT total score, change from baseline ([3]; 67.5 mg bid, HD2 patients, 26 weeks): 0.68 | Δ to placebo: mPPT total score, change from baseline ([3]; 67.5 mg bid, HD2 patients, 52 weeks): 1 | Δ to placebo: mPPT total score, change from baseline ([3]; 67.5 mg bid, baseline TFC<7, week 26): −0.85 | Δ to placebo: mPPT total score, change from baseline ([3]; 67.5 mg bid, baseline TFC<7, week 52): −1.37 | Δ to placebo: mPPT total score, change from baseline ([3]; 90 mg bid, BL stage 3-5 (TFC 0-6), 26 weeks): −0.73 | Δ to placebo: mPPT total score, change from baseline ([3]; 90 mg bid, BL stage 3-5, 52 weeks): −2.73 | Δ to placebo: mPPT total score, change from baseline ([3]; 90 mg bid, Full Analysis Set, week 26): −0.01 | Δ to placebo: mPPT total score, change from baseline ([3]; 90 mg bid, Full Analysis Set, week 52): −0.33 | Δ to placebo: mPPT total score, change from baseline ([3]; 90 mg bid, HD1 and HD2 patients, week 26): 0.46 | Δ to placebo: mPPT total score, change from baseline ([3]; 90 mg bid, HD1 and HD2 patients, week 52): 0.88 | Δ to placebo: mPPT total score, change from baseline ([3]; 90 mg bid, HD1 patients, 26 weeks): 0.81 | Δ to placebo: mPPT total score, change from baseline ([3]; 90 mg bid, HD1 patients, 52 weeks): 1.11 | Δ to placebo: mPPT total score, change from baseline ([3]; 90 mg bid, HD2 patients, 26 weeks): 0.35 | Δ to placebo: mPPT total score, change from baseline ([3]; 90 mg bid, HD2 patients, 52 weeks): 0.71 | Δ to placebo: mPPT total score, change from baseline ([3]; 90 mg bid, baseline TFC<7, week 26): −0.73 | Δ to placebo: mPPT total score, change from baseline ([3]; 90 mg bid, baseline TFC<7, week 52): −2.73 | Δ to placebo: mPPT total score, change from baseline ([3]; 112.5 mg bid, BL stage 3-5 (TFC 0-6), 26 weeks): −0.33 | Δ to placebo: mPPT total score, change from baseline ([3]; 112.5 mg bid, BL stage 3-5, 52 weeks): −0.49 | Δ to placebo: mPPT total score, change from baseline ([3]; 112.5 mg bid, Full Analysis Set, week 26): 0.29 | Δ to placebo: mPPT total score, change from baseline ([3]; 112.5 mg bid, Full Analysis Set, week 52): −0.47 | Δ to placebo: mPPT total score, change from baseline ([3]; 112.5 mg bid, HD1 and HD2 patients, week 26): 0.79 | Δ to placebo: mPPT total score, change from baseline ([3]; 112.5 mg bid, HD1 and HD2 patients, week 52): −0.26 | Δ to placebo: mPPT total score, change from baseline ([3]; 112.5 mg bid, HD1 patients, 26 weeks): 0.03 | Δ to placebo: mPPT total score, change from baseline ([3]; 112.5 mg bid, HD1 patients, 52 weeks): 0.08 | Δ to placebo: mPPT total score, change from baseline ([3]; 112.5 mg bid, HD2 patients, 26 weeks): 0.85
